# Source: patent publication US9943490B2, “Composite flash-precipitated nanoparticles” (The Trustees of Princeton University, priority 2008, dated 2018)
# Experiment: physchem
# Details: aqueous with cosolvent or surfactant or cyclodextrin
compound,measurement,value
CC1=C(/C=C/C(C)=C/C=C/C(C)=C/C=C/C=C(C)/C=C/C=C(C)/C=C/C2=C(C)CCCC2(C)C)C(C)(C)CCC1 [β-carotene],solubility,~50 µg/mL
